Tests used:
Format in all cases: in vivo
[1] = tested on: Diabrotica balteata (Corn root worm); test: Diabrotica balteata (Corn root worm) larval mortality, artificial diet in 24-well MTP; conditions: 120 h, application rate 200 ppm (concentration in well 18 ppm), L2 larvae, larval mortality after 5 days
[2] = tested on: Myzus persicae (Green peach aphid); test: Myzus persicae (Green peach aphid) mortality, sprayed sunflower leaf discs; conditions: foliar, 144 h, 200 ppm spray on sunflower leaf discs, mixed ages, mortality 6 DAT
[3] = tested on: Myzus persicae (Green peach aphid); test: Myzus persicae (Green peach aphid) mortality, test compounds mixed with Sucrose solution under Parafilm; conditions: 120 h, 12.5 ppm in Sucrose solution, infested pea seedlings on Parafilm, mortality 5 days after infestation
[4] = tested on: Plutella xylostella (Diamond back moth); test: Plutella xylostella (Diamond back moth) larval mortality, artificial diet in 24-well MTP; conditions: 144 h, application rate 200 ppm (concentration in well 18 ppm), L2 larvae, larval mortality after 6 days
[5] = tested on: Spodoptera littoralis (Egyptian cotton leafworm); test: Spodoptera littoralis (Egyptian cotton leafworm) mortality, sprayed cotton leaf discs; conditions: foliar, 72 h, 200 ppm spray on cotton leaf discs, L1 larvae, mortality 3 DAT
[6] = tested on: Tetranychus urticae (Two-spotted spider mite); test: Tetranychus urticae (Two-spotted spider mite) mortality, sprayed bean leaf discs; conditions: foliar, 192 h, 200 ppm spray on bean leaf discs, mixed ages, egg, larval and adult mortality after 8 days
[7] = tested on: Thrips tabaci (Onion thrips); test: Thrips tabaci (Onion thrips) mortality, sprayed sunflower leaf discs; conditions: foliar, 168 h, 200 ppm spray on sunflower leaf discs, mixed ages, mortality after 7 days

CCN(C(=O)c1ccc(C#N)cc1)c1cccc(C(=O)Nc2c(Cl)cc(C(F)(C(F)(F)F)C(F)(F)F)cc2OC(F)F)c1OC [Compound 18]
≥ 80%: pest or weed control at 200 ppm [1] | pest or weed control at 200 ppm [2] | pest or weed control at 12.5 ppm [3] | pest or weed control at 200 ppm [4] | pest or weed control at 200 ppm [5] | pest or weed control at 200 ppm [6] | pest or weed control at 200 ppm [7]

COc1c(NC(=O)c2ccc(C#N)cc2)cccc1C(=O)Nc1c(Br)cc(C(F)(C(F)(F)F)C(F)(F)F)cc1OC(F)F [Compound 6]
≥ 80%: pest or weed control at 200 ppm [1] | pest or weed control at 200 ppm [2] | pest or weed control at 12.5 ppm [3] | pest or weed control at 200 ppm [4] | pest or weed control at 200 ppm [5] | pest or weed control at 200 ppm [6] | pest or weed control at 200 ppm [7]

O=C(Nc1cccc(C(=O)Nc2c(Cl)cc(C(F)(C(F)(F)F)C(F)(F)F)cc2OC(F)F)c1F)c1ccccc1 [Compound 68]
≥ 80%: pest or weed control at 200 ppm [1] | pest or weed control at 200 ppm [2] | pest or weed control at 12.5 ppm [3] | pest or weed control at 200 ppm [4] | pest or weed control at 200 ppm [5] | pest or weed control at 200 ppm [6] | pest or weed control at 200 ppm [7]

CCN(C(=O)c1ccc(F)cc1F)c1cccc(C(=O)Nc2c(Br)cc(C(F)(C(F)(F)F)C(F)(F)F)cc2OC(F)F)c1F [Compound 109]
≥ 80%: pest or weed control at 200 ppm [1] | pest or weed control at 200 ppm [2] | pest or weed control at 12.5 ppm [3] | pest or weed control at 200 ppm [4] | pest or weed control at 200 ppm [5] | pest or weed control at 200 ppm [6] | pest or weed control at 200 ppm [7]

CCN(C(=O)c1ccc(C#N)cc1)c1cccc(C(=O)Nc2c(Br)cc(C(F)(C(F)(F)F)C(F)(F)F)cc2OC(F)F)c1OC [Compound 9]
≥ 80%: pest or weed control at 200 ppm [1] | pest or weed control at 200 ppm [2] | pest or weed control at 12.5 ppm [3] | pest or weed control at 200 ppm [4] | pest or weed control at 200 ppm [5] | pest or weed control at 200 ppm [6] | pest or weed control at 200 ppm [7]

O=C(Nc1cccc(C(=O)Nc2c(Cl)cc(C(F)(C(F)(F)F)C(F)(F)F)cc2OC(F)F)c1F)c1cccc(F)c1F [Compound 76]
≥ 80%: pest or weed control at 200 ppm [1] | pest or weed control at 200 ppm [2] | pest or weed control at 12.5 ppm [3] | pest or weed control at 200 ppm [4] | pest or weed control at 200 ppm [5] | pest or weed control at 200 ppm [6] | pest or weed control at 200 ppm [7]

CCN(C(=O)c1ccc(F)cc1)c1cccc(C(=O)Nc2c(Cl)cc(C(F)(C(F)(F)F)C(F)(F)F)cc2OC(F)F)c1F [Compound 120]
≥ 80%: pest or weed control at 200 ppm [1] | pest or weed control at 200 ppm [2] | pest or weed control at 12.5 ppm [3] | pest or weed control at 200 ppm [4] | pest or weed control at 200 ppm [5] | pest or weed control at 200 ppm [6] | pest or weed control at 200 ppm [7]

Cc1cc(C(F)(C(F)(F)F)C(F)(F)F)cc(OC(F)F)c1NC(=O)c1cccc(NC(=O)c2ccncc2)c1F [Compound 100]
≥ 80%: pest or weed control at 200 ppm [1] | pest or weed control at 200 ppm [2] | pest or weed control at 12.5 ppm [3] | pest or weed control at 200 ppm [4] | pest or weed control at 200 ppm [5] | pest or weed control at 200 ppm [6] | pest or weed control at 200 ppm [7]

O=C(Nc1cccc(C(=O)Nc2c(Cl)cc(C(F)(C(F)(F)F)C(F)(F)F)cc2OC(F)F)c1F)c1ccc([N+](=O)[O-])cc1Cl [Compound 57]
≥ 80%: pest or weed control at 200 ppm [1] | pest or weed control at 200 ppm [2] | pest or weed control at 12.5 ppm [3] | pest or weed control at 200 ppm [4] | pest or weed control at 200 ppm [5] | pest or weed control at 200 ppm [6] | pest or weed control at 200 ppm [7]

O=C(Nc1cccc(C(=O)Nc2c(Br)cc(C(F)(C(F)(F)F)C(F)(F)F)cc2OC(F)F)c1F)c1ccc([N+](=O)[O-])cc1Cl [Compound 25]
≥ 80%: pest or weed control at 200 ppm [1] | pest or weed control at 200 ppm [2] | pest or weed control at 12.5 ppm [3] | pest or weed control at 200 ppm [4] | pest or weed control at 200 ppm [5] | pest or weed control at 200 ppm [6] | pest or weed control at 200 ppm [7]

O=C(Nc1cccc(C(=O)Nc2c(Br)cc(C(F)(C(F)(F)F)C(F)(F)F)cc2OC(F)F)c1F)c1ccc([N+](=O)[O-])cc1 [Compound 22]
≥ 80%: pest or weed control at 200 ppm [1] | pest or weed control at 200 ppm [2] | pest or weed control at 12.5 ppm [3] | pest or weed control at 200 ppm [4] | pest or weed control at 200 ppm [5] | pest or weed control at 200 ppm [6] | pest or weed control at 200 ppm [7]

Cc1ccc(C(=O)Nc2cccc(C(=O)Nc3c(Cl)cc(C(F)(C(F)(F)F)C(F)(F)F)cc3OC(F)F)c2F)cc1 [Compound 51]
≥ 80%: pest or weed control at 200 ppm [1] | pest or weed control at 200 ppm [2] | pest or weed control at 12.5 ppm [3] | pest or weed control at 200 ppm [4] | pest or weed control at 200 ppm [5] | pest or weed control at 200 ppm [6] | pest or weed control at 200 ppm [7]

CCN(C(=O)c1ccncc1)c1cccc(C(=O)Nc2c(Br)cc(C(F)(C(F)(F)F)C(F)(F)F)cc2OC(F)F)c1F [Compound 2, N-[3-[[2-bromo-6-(difluoromethoxy)-4-[1,2,2,2-tetrafluoro-1-(trifluoromethyl)ethyl]phenyl]carbamoyl]-2-fluoro-phenyl]-N-ethyl-pyridine-4-carboxamide]
≥ 80%: pest or weed control at 200 ppm [1] | pest or weed control at 200 ppm [2] | pest or weed control at 12.5 ppm [3] | pest or weed control at 200 ppm [4] | pest or weed control at 200 ppm [5] | pest or weed control at 200 ppm [6] | pest or weed control at 200 ppm [7]

CCN(C(=O)c1ccc(F)cc1Cl)c1cccc(C(=O)Nc2c(Cl)cc(C(F)(C(F)(F)F)C(F)(F)F)cc2OC(F)F)c1OC [Compound 158]
≥ 80%: pest or weed control at 200 ppm [1] | pest or weed control at 200 ppm [2] | pest or weed control at 12.5 ppm [3] | pest or weed control at 200 ppm [4] | pest or weed control at 200 ppm [5] | pest or weed control at 200 ppm [6] | pest or weed control at 200 ppm [7]

O=C(Nc1cccc(C(=O)Nc2c(Br)cc(C(F)(C(F)(F)F)C(F)(F)F)cc2OC(F)F)c1F)c1ccccc1 [Compound 31]
≥ 80%: pest or weed control at 200 ppm [1] | pest or weed control at 200 ppm [2] | pest or weed control at 12.5 ppm [3] | pest or weed control at 200 ppm [4] | pest or weed control at 200 ppm [5] | pest or weed control at 200 ppm [6] | pest or weed control at 200 ppm [7]

COc1c(NC(=O)c2ccncc2)cccc1C(=O)Nc1c(Cl)cc(C(F)(C(F)(F)F)C(F)(F)F)cc1OC(F)F [Compound 16]
≥ 80%: pest or weed control at 200 ppm [1] | pest or weed control at 200 ppm [2] | pest or weed control at 12.5 ppm [3] | pest or weed control at 200 ppm [4] | pest or weed control at 200 ppm [5] | pest or weed control at 200 ppm [6] | pest or weed control at 200 ppm [7]

CCN(C(=O)c1ccc(F)cc1Cl)c1cccc(C(=O)Nc2c(Br)cc(C(F)(C(F)(F)F)C(F)(F)F)cc2OC(F)F)c1OC [Compound 141]
≥ 80%: pest or weed control at 200 ppm [1] | pest or weed control at 200 ppm [2] | pest or weed control at 12.5 ppm [3] | pest or weed control at 200 ppm [4] | pest or weed control at 200 ppm [5] | pest or weed control at 200 ppm [6] | pest or weed control at 200 ppm [7]

CCN(C(=O)c1ccc(C#N)cc1)c1cccc(C(=O)Nc2c(Cl)cc(C(F)(C(F)(F)F)C(F)(F)F)cc2OC(F)F)c1F [Compound 17]
≥ 80%: pest or weed control at 200 ppm [1] | pest or weed control at 200 ppm [2] | pest or weed control at 12.5 ppm [3] | pest or weed control at 200 ppm [4] | pest or weed control at 200 ppm [5] | pest or weed control at 200 ppm [6] | pest or weed control at 200 ppm [7]

From patent US11445724B2, “Insecticidal compounds” (SYNGENTA PARTICIPATIONS AG, priority 2013, dated 2022)
